Here are results for 1 compound from patent US20230323355A1 (priority 2020, published 2023).

By EC50 is commonly meant the midpoint of the concentration-response curve. The low end stands for higher potency in that assay, the high end for lower potency in that assay.

This assay concerns SARS-CoV-2 Wuhan virus (SARS-CoV-2-WA1 2020). Briefly: microbe, parasite or virus in culture. Format: cell-based.

In the case of `CCC(CC)COC(=O)[C@H](C)N[P@](=O)(OC[C@H]1O[C@@](C#N)(c2ccc3c(N)ncnn23)[C@H](O)[C@@H]1O)Oc1ccccc1` [Remdesivir], the “fold reduction in SARS-CoV-2 replication” value was 1.5 fold and the “inhibition of SARS-CoV-2 Wuhan” value is given as “did not inhibit”. The EC50 (Severe acute respiratory syndrome coronavirus 2, Vero C1008) is about 800 nM.
